In patent US20240280561A1, “COMPOSITIONS AND METHODS FOR TREATING AND/OR IDENTIFYING AN AGENT FOR TREATING INTESTINAL CANCERS” (Dana-Farber Cancer Institute, Inc., priority 2022, published 2024):

Experiments:
[1] = system: SOX9 expression in HT-115 cells; experiment: SOX9 protein expression in CRC cells treated with WNT and TGF-β pathway agents (immunoblot); type: cell-based, human; details: CRC cells (HT-115)
From the text: AXIN2, SOX9 and […] (loading control) protein expression in HT-115 (Apc Mutant) cells treated with DMSO, rWNT3A or indicated concentrations of WNT-inhibitor ICG-001 by immunoblot (middle panel). SOX9 and β-actin (loading control) protein expression in HT-115 cells expressing GFP or dominant-negative (dn) TCF4 (right panel); S.E.=short exposure, L.E.=long exposure. […] Protein expression of SOX9 and β-actin (loading control) in HT-115 cells treated with indicated concentration of rTGF-β or TGF-β inhibitor.
Immunoblot analysis was performed as previously described (Wong et al. (2018) Nature medicine 24: 968-977). Briefly, cells were lysed in RIPA buffer supplemented with a protease inhibitor cocktail (Roche). Whole cell extracts were resolved by SDS-PAGE, transferred to PVDF membranes, and probed with indicated primary antibodies. Bound antibodies were detected with horseradish peroxidase (HRP)-conjugated secondary antibodies and chemiluminescent HRP substrate.
The following agents were used: recombinant WNT3A as a Wnt activator and ICG-001 as a Wnt pathway inhibitor, all of which were employed at indicated concentrations and durations.
To examine whether SOX9 is regulated by stem cell and differentiation cues, the impact of the WNT and BMP/TGF-β signaling pathways on SOX9 expression, respectively, was evaluated. […]

[2] = system: PROM1 intronic enhancer reporter in HEK293T cells; experiment: PROM1 enhancer GFP reporter assay; type: cell-based; details: GFP reporter transiently transfected into HEK293T cells
From the text: A 537-bp region in intron 1 of PROM1 (hg19, ch4:[…], negative strand) was identified as a putative SOX9-regulated enhancer based on V5-SOX9 and H3K27Ac CHIP data. PCR-amplified products or gene blocks (gBlocks, IDT) consisting of the putative PROM1 enhancer, a minimal promoter, eGFP, and PGK-hygromycin resistance cassette was cloned into the lentiviral LV 1-5 backbone vector using Gibson modular assembly platform (Akama-Garren et al. (2016) Sci Rep 6: 16836). Briefly, PROM1 enhancer was generated as a gBlock by adding the following primer sequencing to the 5′ and 3′ end of the 537-bp region, respectively: 5′→3′ Forward (site 1), […] and 5′→3′ Reverse, […] (site 2); the minimal promoter was PCR amplified from the 7TFP WT CDH1 reporter plasmid using the following primer sequences: 5′→3′ Forward (includes site 2), […] and 5′→3′ Reverse, AGGCCTCGGGATTcctagg[…] (includes site 3); eGFP was generated by adding the following primer sequences to the 5′ and 3′ end, respectively: 5′→3′ Forward (site 3), AAACCGCTGTTcctaggAATCCCGAGGCCT and 5′→3′ Reverse, GACCCGACATTagcgctACAGCTTAAGCGG (site 4); and PGK-hygro was PCR amplified from plenti-PGK-hygro-gateway destination vector using the following primers: 5′→3′ Forward (includes site 4), GACCCGACATTagcgct[…] […]
To investigate the precise mechanism of PROM1 activation, V5-SOX9 and H3K27Ac CHIP-seq data were analyzed. […]

Molecule	SOX9 expression [1]	PROM1 enhancer reporter activity, stimulation [2] [fold]
O=C1[C@H](Cc2ccc(O)cc2)N2C(=O)CCN(C(=O)NCc3ccccc3)[C@H]2CN1Cc1cccc2ccccc12 [ICG-001]	reduced SOX9 expression	
recombinant WNT3A: recombinant WNT3A used as a Wnt activator (protein, UniProt P56704 19-352, looked up) Protein Wnt-3a: SYPIWWSLAVGPQYSSLGSQPILCASIPGLVPKQLRFCRNYVEIMPSVAEGIKIGIQECQHQFRGRRWNCTTVHDSLAIFGPVLDKATRESAFVHAIASAGVAFAVTRSCAEGTAAICGCSSRHQGSPGKGWKWGGCSEDIEFGGMVSREFADARENRPDARSAMNRHNNEAGRQAIASHMHLKCKCHGLSGSCEVKTCWWSQPDFRAIGDFLKDKYDSASEMVVEKHRESRGWVETLRPRYTYFKVPTERDLVYYEASPNFCEPNPETGSFGTRDRTCNVSSHGIDGCDLLCCGRGHNARAERRREKCRCVFHWCCYVSCQECTRVYDVHTCK		3
